From patent US20230063109A1, “MIXTURES COMPRISING NITRIFICATION INHIBITORS AND CARRIERS” (BASF SE, priority 2020, published 2023) come the findings set out here.

The test deals with nitrification in soil (microbial biomass). Description: Incubation experiment: measurement of the nitrification-inhibiting effect in soil (NH4—N recovery). The note with it: overall summary of the experiments. How it is done: In all treatments the same nitrogen as well as the same AI (active ingredient) amounts were applied. In case of the two tested nitrification inhibitors DMPP and DMPSA it was 1% NI (nitrification inhibitor) related to the sum of NH2—N and NH4—N of the corresponding carrier fertilizer. In case of physical mixtures, in which only one part of the fertilizers was treated with a NI, the concentrations of the corresponding AI were higher so that the overall amounts of NI were the same as in the control treatment.
100 g soil (incubated at 20° C. for two weeks to activate the microbial biomass) is filled into 500 ml plastic bottles (e.g. soil sampled from the field) and is moistened to 50% water holding capacity. The fertilizers are treated with the respective products containing the compositions and mixtures of the invention in the appropriate concentration.
Granules of the treated fertilizers are evenly distributed to the soil. The amount of fertilizer which is applied corresponds to 10 mg of reduced nitrogen per bottle.
The bottles are capped loosely to allow air exchange. The bottles are then incubated at 20° C. for 28 days.
For analysis, 300 mL of a 1% K2SO4-solution is added to the bottle containing the soil and shaken for 2 hours in a horizontal shaker at 150 rpm. […] The ammonium contents of the filtrates are analyzed with an autoanalyzer at 550 nm (Merck, AA11).

Consider “2-(3,4-dimethyl-1H-pyrazol-1-yl)succinic acid and/or 2-(4,5-dimethyl-1H-pyrazol-1-yl)succinic acid [DMPSA]”, for which the “inhibition of nitrification (in words)” value is reported as “sufficiently be inhibited”.
Turning to “3,4-dimethyl pyrazole phosphate and/or 4,5-dimethyl pyrazole phosphate [DMPP]”, the “inhibition of nitrification (in words)” value was “sufficiently be inhibited”.
